This note sets out measurements from patent US20250154138A1, “Small Molecule IL-17A Modulators” (BeiGene, Ltd., priority 2022, published 2025).

The target in experiment [1] is human IL-17A / human IL-17RA (Homo sapiens (Human), UniProt Q16552). Put plainly: Human IL-17A biochemical assay (HTRF, blocking of IL-17A binding to IL-17RA). Particulars: 0.4 nM IL-17A, 0.3 nM IL-17RA, max compound concentration 10 uM. The gist of the method:
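In this time-resolved fluorescence format, the cytokine (0.4 nM) is exposed to compound for 3 h before 0.3 nM receptor is added for 1 h, with all incubations at room temperature in HEPES buffer, pH 7.5. The 620/665 nm signal ratio gives percent inhibition, and IC50 is taken from a 4-parameter curve.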
Background: Time-resolved FRET reads energy transfer from a long-lived donor to a nearby acceptor.

In experiment [2] the test system is IL-17-induced GROα secretion from HT-29 cells. Put plainly: GROα release assay in human colorectal adenocarcinoma epithelial cell (HT-29, ELISA). Format: cell-based. The following applies: Homo sapiens, HT-29, 48 h, 10 ng/mL IL-17A, highest concentration 10 μM, read-out: Cellular assay HT29 cell/CXCL1 IC50. The gist of the method: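 IC50 values come from four-parameter fits of GROα levels, quantified by ELISA (450 nm, standard curve) in supernatants. Compounds, 4-fold serially diluted from 10 μM, were mixed 15 min with IL-17A (10 ng/mL final) before 48 h incubation with HT-29 cells at 37°C.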
On the technique in general: An ELISA detects its analyte on a solid surface through an enzyme-linked reagent.

Chain of human IL-17A / human IL-17RA (Q16552 24-155): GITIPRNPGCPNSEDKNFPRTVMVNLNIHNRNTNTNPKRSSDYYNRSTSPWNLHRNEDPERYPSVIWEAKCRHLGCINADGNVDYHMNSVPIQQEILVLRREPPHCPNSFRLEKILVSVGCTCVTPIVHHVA

Regarding `CNC(=O)C1(N2CC(C)NC2=O)Cc2cc3nc([C@@H](NC(=O)c4ccnn4C)C4CCCCC4)[nH]c3cc2C1` (stereo partly drawn) [Example 5, 2-((S)-cyclohexyl(1-methyl-1H-pyrazole-5-carboxamido)methyl)-N-methyl-6-(4-methyl-2-oxoimidazolidin-1-yl)-1,5,6,7-tetrahydroindeno[5,6-d]imidazole-6-carboxamide], the figures for the IC50 in experiment [1] and in experiment [2] were 410 nM and 353 nM, respectively.

For the compound `Cc1nonc1C(=O)N[C@H](C(=O)Nc1ccc2c(c1)CC(C(=O)Nc1ccccc1)(N1C[C@@H](C(C)C)NC1=O)C2)C(C1CC1)C1CC1` (stereo partly drawn) [Example 234, N-((2S)-1,1-dicyclopropyl-3-((2-((R)-4-isopropyl-2-oxoimidazolidin-1-yl)-2-(phenylcarbamoyl)-2,3-dihydro-1H-inden-5-yl)amino)-3-oxopropan-2-yl)-4-methyl-1,2,5-oxadiazole-3-carboxamide], the IC50 stood at 340 nM in experiment [1] and 207 nM in experiment [2].

`COCC1(N2C[C@@H](C(C)C)NC2=O)Cc2ccc(NC(=O)[C@@H](NC(=O)c3nonc3C)C(C3CC3)C3CC3)cc2C1` (stereo partly drawn) [Example 244, N-((2S)-1,1-dicyclopropyl-3-((2-((R)-4-isopropyl-2-oxoimidazolidin-1-yl)-2-(methoxymethyl)-2,3-dihydro-1H-inden-5-yl)amino)-3-oxopropan-2-yl)-4-methyl-1,2,5-oxadiazole-3-carboxamide]: the IC50 in experiment [1] turned out to be 2130 nM; in experiment [2], 1570 nM.

As for `CC(C)[C@@H]1CN(C2(c3nc4ccccc4[nH]3)Cc3ccc(NC(=O)[C@@H](NC(=O)c4ccnn4C)C4CCCCC4)cc3C2)C(=O)N1` (stereo partly drawn) [Example 169, N-((1S)-2-((2-(1H-benzo[d]imidazol-2-yl)-2-((R)-4-isopropyl-2-oxoimidazolidin-1-yl)-2,3-dihydro-1H-inden-5-yl)amino)-1-cyclohexyl-2-oxoethyl)-1-methyl-1H-pyrazole-5-carboxamide], the IC50 came to 56.4 nM in experiment [1] and 65.2 nM in experiment [2].

With `CNC(=O)C1(N2CC(C(C)C)NC2=O)Cc2ccc(NC(=O)[C@@H](NC(=O)c3ccnn3C)C3CCCCC3)cc2C1` (stereo partly drawn) [Example 38, N-((1S)-1-cyclohexyl-2-((2-(4-isopropyl-2-oxoimidazolidin-1-yl)-2-(methylcarbamoyl)-2,3-dihydro-1H-inden-5-yl)amino)-2-oxoethyl)-1-methyl-1H-pyrazole-5-carboxamide], the IC50 amounted to 46 nM in experiment [1] and 156 nM in experiment [2].

With `Cn1nccc1C(=O)N[C@H](C(=O)Nc1ccc2c(c1)CC(C(=O)NC13CC(C1)C3)(N1CC3(CC3)CNC1=O)C2)C1CCCCC1` (stereo partly drawn) [Example 182, N-((1S)-2-((2-(bicyclo[1.1.1]pentan-1-ylcarbamoyl)-2-(6-oxo-5,7-diazaspiro[2.5]octan-5-yl)-2,3-dihydro-1H-inden-5-yl)amino)-1-cyclohexyl-2-oxoethyl)-1-methyl-1H-pyrazole-5-carboxamide], the IC50 in experiment [1] was 26.9 nM; in experiment [2], 52.9 nM.

For `CNC(=O)C1(N2CC(C(C)C)NC2=O)Cc2cc3nc([C@@H](NC(=O)c4ccnn4C)C4CCCCC4)[nH]c3cc2C1` (stereo partly drawn) [Example 28, 2-((S)-cyclohexyl(1-methyl-1H-pyrazole-5-carboxamido)methyl)-6-(4-isopropyl-2-oxoimidazolidin-1-yl)-N-methyl-1,5,6,7-tetrahydroindeno[5,6-d]imidazole-6-carboxamide], the IC50 was 394 nM in experiment [1] and 76.5 nM in experiment [2].

For the compound `CNC(=O)C1(N2CC3(CC3)CNC2=O)Cc2ccc(NC(=O)[C@@H](NC(=O)c3ccnn3C)C(C3CC3)C3CC3)cc2C1` (stereo partly drawn) [Example 114, N-((2S)-1,1-dicyclopropyl-3-((2-(methylcarbamoyl)-2-(6-oxo-5,7-diazaspiro[2.5]octan-5-yl)-2,3-dihydro-1H-inden-5-yl)amino)-3-oxopropan-2-yl)-1-methyl-1H-pyrazole-5-carboxamide], the IC50 in experiment [1] was 73.9 nM; in experiment [2], 57.2 nM.

In the case of `CC(C)[C@@H]1CN(C2Cc3ccc(NC(=O)[C@@H](NC(=O)c4ccnn4C)C4CCCCC4)cc3C2)C(=O)N1` (stereo partly drawn) [Example 162, N-((1S)-1-cyclohexyl-2-((2-((R)-4-isopropyl-2-oxoimidazolidin-1-yl)-2,3-dihydro-1H-inden-5-yl)amino)-2-oxoethyl)-1-methyl-1H-pyrazole-5-carboxamide], the IC50 in experiment [1] came out at 540 nM; in experiment [2], 1060 nM.

Regarding `CNC(=O)C1(N2CC3(CC3)CNC2=O)Cc2ccc(NC(=O)[C@@H](NC(=O)c3ccnn3C)C3CCC(F)(F)CC3)cc2C1` (stereo partly drawn) [Example 142, N-((1S)-1-(4,4-difluorocyclohexyl)-2-((2-(methylcarbamoyl)-2-(6-oxo-5,7-diazaspiro[2.5]octan-5-yl)-2,3-dihydro-1H-inden-5-yl)amino)-2-oxoethyl)-1-methyl-1H-pyrazole-5-carboxamide], the IC50 was determined as 107 nM in experiment [1] and 197 nM in experiment [2].

On to `Cc1nonc1C(=O)N[C@H](C(=O)Nc1ccc2c(c1)CC(C(=O)Nc1cncs1)(N1C[C@@H](C(C)C)NC1=O)C2)C(C1CC1)C1CC1` (stereo partly drawn) [Example 285, N-((2S)-1,1-dicyclopropyl-3-((2-((R)-4-isopropyl-2-oxoimidazolidin-1-yl)-2-(thiazol-5-ylcarbamoyl)-2,3-dihydro-1H-inden-5-yl)amino)-3-oxopropan-2-yl)-4-methyl-1,2,5-oxadiazole-3-carboxamide], for which the IC50 turned out to be 71.4 nM in experiment [1] and 90.2 nM in experiment [2].

Consider `CNC(=O)C1(N2CC(C)CNC2=O)Cc2ccc(NC(=O)[C@@H](NC(=O)c3ccnn3C)C3CCCCC3)cc2C1` (stereo partly drawn) [Example 98, N-((1S)-1-cyclohexyl-2-((2-(5-methyl-2-oxotetrahydropyrimidin-1(2H)-yl)-2-(methylcarbamoyl)-2,3-dihydro-1H-inden-5-yl)amino)-2-oxoethyl)-1-methyl-1H-pyrazole-5-carboxamide], for which the IC50 is 628 nM in experiment [1] and 3280 nM in experiment [2].

For `Cc1nonc1C(=O)N[C@H](C(=O)Nc1ccc2c(c1)CC(C(O)C(F)(F)F)(N1C[C@@H](C(C)C)NC1=O)C2)C(C1CC1)C1CC1` (stereo partly drawn) [Example 238, N-((2S)-1,1-dicyclopropyl-3-((2-((R)-4-isopropyl-2-oxoimidazolidin-1-yl)-2-(2,2,2-trifluoro-1-hydroxyethyl)-2,3-dihydro-1H-inden-5-yl)amino)-3-oxopropan-2-yl)-4-methyl-1,2,5-oxadiazole-3-carboxamide], the IC50 worked out at 222 nM in experiment [1] and 137 nM in experiment [2].

Consider `CNC(=O)C1(N2CC3(CC3)CNC2=O)Cc2ccc(NC(=O)[C@@H](NC(=O)C(F)(F)c3ccc(C#N)n3C)C3CCCCC3)cc2C1` (stereo partly drawn) [Example 176, 5-((S)-2-(2-(5-cyano-1-methyl-1H-pyrrol-2-yl)-2,2-difluoroacetamido)-2-cyclohexylacetamido)-N-methyl-2-(6-oxo-5,7-diazaspiro[2.5]octan-5-yl)-2,3-dihydro-1H-indene-2-carboxamide], for which the results for the IC50 in experiment [1] and in experiment [2] were 69.9 nM and 290 nM, respectively.

In the case of `[2H]C([2H])([2H])NC(=O)C1(N2C[C@@H](C(C)C)NC2=O)Cc2ccc(NC(=O)[C@@H](NC(=O)c3ccnn3C)C3CCCCCC3)cc2C1` (stereo partly drawn) [Example 82, N-((1S)-1-cycloheptyl-2-((2-((R)-4-isopropyl-2-oxoimidazolidin-1-yl)-2-((methyl-d3)carbamoyl)-2,3-dihydro-1H-inden-5-yl)amino)-2-oxoethyl)-1-methyl-1H-pyrazole-5-carboxamide], the IC50 in experiment [1] came to 32 nM; in experiment [2], 156 nM.

On to `CNC(=O)C1(N2C[C@@H](C(C)C)NS2(=O)=O)Cc2ccc(NC(=O)[C@@H](NC(=O)c3ccnn3C)C3CCCCC3)cc2C1` (stereo partly drawn) [Example 55, N-((1S)-1-cyclohexyl-2-((2-((R)-4-isopropyl-1,1-dioxido-1,2,5-thiadiazolidin-2-yl)-2-(methylcarbamoyl)-2,3-dihydro-1H-inden-5-yl)amino)-2-oxoethyl)-1-methyl-1H-pyrazole-5-carboxamide], for which the IC50 in experiment [1] worked out at 1050 nM; in experiment [2] it was 1820 nM.

As to `CC1CN(C2(CO)Cc3ccc(NC(=O)[C@@H](NC(=O)c4ccnn4C)C4CCCCC4)cc3C2)C(=O)N1` (stereo partly drawn) [Example 22, N-((1S)-1-cyclohexyl-2-((2-(hydroxymethyl)-2-(4-methyl-2-oxoimidazolidin-1-yl)-2,3-dihydro-1H-inden-5-yl)amino)-2-oxoethyl)-1-methyl-1H-pyrazole-5-carboxamide], the IC50 in experiment [1] was 950 nM; in experiment [2], 7120 nM.

For the compound `CC1CN(C2Cc3ccc(NC(=O)[C@@H](NC(=O)c4ccnn4C)C4CCCCC4)cc3C2)C(=O)N1` (stereo partly drawn) [Example 3, N-((1S)-1-cyclohexyl-2-((2-(4-methyl-2-oxoimidazolidin-1-yl)-2,3-dihydro-1H-inden-5-yl)amino)-2-oxoethyl)-1-methyl-1H-pyrazole-5-carboxamide], the IC50 was 3190 nM in experiment [1] and 8430 nM in experiment [2].

Take `CC(C)[C@@H]1CN(CC2Cc3ccc(NC(=O)[C@@H](NC(=O)c4ccnn4C(C)C)C(C4CC4)C4CC4)cc3N2)C(=O)N1` (stereo partly drawn) [Example 286, N-((2S)-1,1-dicyclopropyl-3-((2-(((R)-4-isopropyl-2-oxoimidazolidin-1-yl)methyl)indolin-6-yl)amino)-3-oxopropan-2-yl)-1-isopropyl-1H-pyrazole-5-carboxamide]: the IC50 in experiment [1] was found to be 144 nM; in experiment [2] it was 430 nM.

`CNC(=O)C1(N2C[C@@H](Cc3ccc(C)cc3)NC2=O)Cc2ccc(NC(=O)[C@@H](NC(=O)c3ccnn3C)C3CCCCC3)cc2C1` (stereo partly drawn) [Example 62, N-((1S)-1-cyclohexyl-2-((2-((R)-4-(4-methylbenzyl)-2-oxoimidazolidin-1-yl)-2-(methylcarbamoyl)-2,3-dihydro-1H-inden-5-yl)amino)-2-oxoethyl)-1-methyl-1H-pyrazole-5-carboxamide]: the results for the IC50 in experiment [1] and in experiment [2] were 24 nM and 212 nM, respectively.
